From US20250375129A1, “USE OF BLINK REFLEX FOR ATTENTION-DEFICIT/HYPERACTIVITY DISORDER (ADHD) RESPONSE MONITORING AND/OR TREATMENT SELECTION” (Blinktbi, Inc., priority 2022, published 2025)
Entries after “also recorded” stand apart in the source; their conditions may differ.

System: blink reflex
Assay: Blink reflex response parameters in ADHD patients before and 1 hour after their prescribed ADHD medication versus non-ADHD controls (pilot study)
Type: in vivo, humans
Settings: for Max closing velocity, effect of medication type (in words): compared to controls and participants before taking their ADHD medications; for Delta 30, Estimate of Fixed Effects / Excursions, Estimate of Fixed Effects / Initial Velocity, Estimate of Fixed Effects / Max Closing Velocity, Estimate of Fixed Effects / Differential Latency, Estimate of Fixed Effects: Model 3 mixed model by medication type; for Delta 30, Estimate of Fixed Effects / Excursions, Estimate of Fixed Effects / Initial Velocity, Estimate of Fixed Effects / Max Closing Velocity, Estimate of Fixed Effects / Differential Latency, Estimate of Fixed Effects / Max Closing Velocity, Estimate of Fixed Effects, further analysis: relative to Med_type = 4 (Control); for Differential Latency, Estimate of Fixed Effects: AMP n=20, ATX n=2, MPH n=2; for Max Closing Velocity, Estimate of Fixed Effects, further analysis: Model 3 with confounders hours of sleep, urine specific gravity and age

| Compound | Delta 30, effect of medication type (in words) (Model 3) | Differential Latency, effect of medication type (in words) (Model 3) | Excursions, effect of medication type (in words) (Model 3) | Initial Velocity, effect of medication type (in words) (Model 3) | Max closing velocity, effect of medication type (in words) (Model 3) | Blink reflex parameters predictive for treatment type (in words) (Model 3 conclusion, ATX=2, MPH=2, AMP=20 participants) | Delta 30, Estimate of Fixed Effects | Excursions, Estimate of Fixed Effects | Initial Velocity, Estimate of Fixed Effects | Max Closing Velocity, Estimate of Fixed Effects | Differential Latency, Estimate of Fixed Effects | Max Closing Velocity, Estimate of Fixed Effects, further analysis |
| --- | --- | --- | --- | --- | --- | --- | --- | --- | --- | --- | --- | --- |
| COC(=O)C(c1ccccc1)C1CCCCN1 (stereo not drawn) [MPH, methylphenidate] | statistically significant | statistically significant | statistically significant | statistically significant; also recorded: slight increase | associated with an increase | particularly predictive | −1.756 | 14.707 | .578 | 1.378 | −0.980 | 1.265 |
| CNCC[C@@H](Oc1ccccc1C)c1ccccc1 [ATX] | statistically significant | statistically significant | – | – | associated with an increase | – | −4.184 | 13.866 | .532 | 2.659 | −2.456 | 2.277 |
